The values that follow come from US20250195498A1, “INHIBITOR OF CELLULAR PURINE NUCLEOTIDE SALVAGE PATHWAY ENZYME FOR USE IN THE TREATMENT AND/OR PREVENTION OF HELICOBACTER PYLORI INFECTION AND/OR DISEASE ASSOCIATED WITH SUCH INFECTION AND PHARMACEUTICAL COMPOSITION COMPRISING THE SAME” (UNIWERSYTET WARSZAWSKI, priority 2022, published 2025).

In brackets after ≈: the same amount, converted by molar mass. Several values for one entry are separate records, joined by “and”; a condition that tells them apart may be missing. Identical values can stand only once. Like-named read-outs stand apart in the source and are kept apart here. Marks after values point to notes of the source that are not given here. A value given as a limit tells only on which side of the number the result lay.

One assay concerns H. pylori. The following applies: MTZ according to EUCAST, 2021, kanamycin according to Irie et al., 1997, cited from earlier work.
Another assay deals with H. pylori strain 26695. The assay can be described thus: Growth curve method / MIC in liquid culture, strain 26695. The following applies: strain 26695; for MIC: read-out: MIC; for inhibition of bacterial growth: concentrations up to 5 mM. Format: cell-based, Helicobacter pylori. How it is done:
(§1) The representative PNP inhibitor from H. pylori included in this study was immucillin A. The experiment was conducted using the growth curve method (two-fold serial dilutions in liquid medium). The tested H. pylori strains were cultured in Petri dishes with BHI solid medium supplemented with 10% FBS and 1% H. pylori Selective Supplement antibiotic kit, in anaerostats under microaerophilic conditions (5% 02, 10% CO2, 85% N2) at 37° C. for 3 days. Liquid culture of H. pylori was conducted overnight with shaking at 37° C. under microaerophilic conditions in BHI medium supplemented with 10% FBS and 1% H. pylori Selective Supplement antibiotic kit. Subsequently, for the essential experiment of determining the minimum inhibitory concentration (MIC), double strengthened liquid BHI medium was prepared, that is, supplemented with 20% FBS and a 2% set of H. pylori Selective Supplement antibiotics.
(§2) Bacterial proliferation inhibition experiments were carried out in 24-deep-well 2 ml flat-bottomed plates at a solution volume per well of 0.5 ml. In a single well, double strengthened (relative to the concentration planned for testing) solutions of the test inhibitor and double strengthened liquid BHI medium inoculated with H. pylori (10^4-10^5 CFU/ml in the final volume in the well, corresponding to the optical density of the culture OD600=0.05) were mixed together in a 1:1 ratio.
(§3) Kanamycin at a concentration of 25 μg/ml (Irie et al., 1997) was used as a positive control, while Mili-Q deionized water and BHI medium not inoculated with bacteria were used as negative controls. Plates were shaken at 37° C., under microaerophilic conditions. […] After 24 hours, the OD600 of samples containing the negative control, i.e. with Mili-Q deionized water, was about 1.2-1.4, corresponding to a bacterial concentration of about […].
(§4) In addition, the method proposed by Knezevic et al. (2018) was used to check whether the observed OD600 was from live bacterial cells. For this purpose, an equal volume of Christensen's double strength urea broth (that is, containing twice the concentration of all components) was added to the wells after incubation, and the plates were additionally incubated for 4 hours in an oxygen atmosphere at 37° C. During incubation, in wells with urease produced by live bacteria, urea is converted to ammonia and carbon dioxide, changing the pH of the solution and thus the colour of the phenol red indicator contained in the medium (from orange to purple).
(§5) All experiments were performed in triplicate.
The experiments were carried out using the growth curve method as described in Example 3, and the results obtained for two of the compounds tested are shown in FIG. 5. As the water solubility of the compounds tested, with the exception of 2,6-diCl-Pu, is relatively poor, two experiments were carried out: the first with the maximum concentration possible under the experimental conditions in aqueous solution with a small admixture of DMSO, and the second with higher concentrations that led to partial precipitation of the compound.
The antibacterial activity of two compounds, mefloquine (in the form of hydrochloride) and quinine, described in the literature as potent in vitro inhibitors of the PNP enzyme from Plasmodium falciparum (Dziekan et al., 2019), was tested. Using a two-fold serial dilution method in liquid medium (as described in Example 3), the MIC values for mefloquine and quinine were determined against clinical H. pylori strains resistant to MTZ, CLR and MTZ+CLR (M26, M91, M92 and M93), as well as the reference H. pylori strain 26695. Four clinical H. pylori strains isolated from adults, from primary infections (the subjects had never previously been treated against H. pylori infection) were tested. These strains come from the collection of the Department of Microbiology of the Medical University of Wroclaw and were obtained due to collaboration with Prof. Grażyna Gościniak, MD, PhD. […]

Assay [1] has as its system H. pylori strain M26 (MTZ + CLR resistant). The assay can be described thus: Growth curve method / MIC, resistant strain M26. Format: cell-based, Helicobacter pylori. The following applies: for MIC: strain M26, MTZ + CLR resistant. The protocol:
as §1, §2, §3, §4, §5
(§6) The antibacterial activity of two compounds, mefloquine (in the form of hydrochloride) and quinine, described in the literature as potent in vitro inhibitors of the PNP enzyme from Plasmodium falciparum (Dziekan et al., 2019), was tested. Using a two-fold serial dilution method in liquid medium (as described in Example 3), the MIC values for mefloquine and quinine were determined against clinical H. pylori strains resistant to MTZ, CLR and MTZ+CLR (M26, M91, M92 and M93), as well as the reference H. pylori strain 26695. Four clinical H. pylori strains isolated from adults, from primary infections (the subjects had never previously been treated against H. pylori infection) were tested. These strains come from the collection of the Department of Microbiology of the Medical University of Wroclaw and were obtained due to collaboration with Prof. Grażyna Gościniak, MD, PhD. The tested compounds belong to organic substances and are soluble in DMSO. The maximum tested concentration of quinine in H. pylori culture was 0.56 mM, and that of mefloquine was 2.25 mM. […] On each occasion, the effect of DMSO alone on the growth of the H. pylori strains tested was also checked. […] Kanamycin was used as a positive control and Mili-Q deionised water as a negative control. All experiments were carried out in triplicate. […]

In assay [2] the test system is H. pylori strain M91 (MTZ + CLR resistant). The assay can be described thus: Growth curve method / MIC, resistant strain M91. It is filed as cell-based, Helicobacter pylori. The following applies: for MIC: strain M91, MTZ + CLR resistant. The protocol: as §1, §2, §3, §4, §5, §6
Assay [3] deals with H. pylori strain M93 (MTZ resistant). The assay can be described thus: Growth curve method / MIC, resistant strain M93. It is filed as cell-based, Helicobacter pylori. The following applies: for MIC: strain M93, MTZ resistant. The protocol:
as §1, §2, §3, §4, §5, §6

Assay [4] relates to H. pylori strain M92 (CLR resistant). The assay can be described thus: Growth curve method / MIC, resistant strain M92. It is filed as cell-based, Helicobacter pylori. The following applies: for MIC: strain M92, CLR resistant. How it is done: as §1, §2, §3, §4, §5, §6
Another assay has as its system H. pylori strain N6. The assay can be described thus: Growth curve method / MIC, strain N6. Format: cell-based, Helicobacter pylori. The following applies: strain N6; concentrations up to 5 mM. The protocol:
as §1, §2, §3, §4, §5
(§7) Inhibition by PLP and its metabolic precursors of the growth of H. pylori strains: 26695, N6 and P12 in culture was investigated using the growth curve method as described in Example 3. From these experiments, the minimum inhibitory concentration was determined as the lowest concentration of a compound that inhibits the visible growth of the bacteria, compared to growth in control samples without the tested compounds. All experiments were carried out in triplicate.

A further assay concerns H. pylori strain P12. The assay can be described thus: Growth curve method / MIC, strain P12. The following applies: strain P12; concentrations up to 5 mM. Format: cell-based, Helicobacter pylori. The protocol:
as §1, §2, §3, §4, §5, §7

Where [5] appears, read: Helicobacter pylori, read-out: MIC.
Where [6] appears, read: listed as Mefloquine (hydrochloride).
[7] abbreviates: listed as Mefloquine (hydrochloride), read-out: MIC.

In general, inhibition refers to the change of the read-out against control, counted positive when it falls. For `Cc1ncc([N+](=O)[O-])n1CCO` [Metronidazole, metronidazole], the “MIC (literature)” value is 8 ^f μg/ml and 47 μM in the assay on H. pylori; 47 μM and 8 μg/ml with H. pylori (listed as MTZ). For the same compound, the inhibition at 12 µM in the assay with H. pylori strain 26695 (Helicobacter pylori, metronidazole 12 μM (2 μg/ml), not maximum solubility, read-out: % inhibition of H. pylori cell cultures) is 89 to 92%.
One may read the MIC as the lowest concentration that inhibits growth of the organism. With `OC(c1cc(C(F)(F)F)nc2c(C(F)(F)F)cccc12)C1CCCCN1` (stereo not shown) [mefloquine], the minimal inhibitory concentration (MIC) is 35 µM and 14.5 µg/mL in assay [1] (setting [5]); “(14.5 μg/ml)” in assay [1] (setting [6]); 35 µM in assay [1] (setting [7]); 50 µM and 21 µg/mL in assay [2] (setting [5]); “(21 μg/ml)” in assay [2] (setting [6]); 50 µM in assay [2] (setting [7]). The MIC in assay [3] (setting [5]) is 35 µM and 14.5 µg/mL; in assay [3] (setting [6]) it was “(14.5 μg/ml)”; in assay [3] (setting [7]) it was 35 µM (≈ 13.2 µg/mL); in assay [4] (setting [5]) it was 40 µM and 17 µg/mL; in assay [4] (setting [6]), “(17 μg/ml)”; in assay [4] (setting [7]), 40 µM (≈ 15.1 µg/mL). Besides, the MIC in the assay on H. pylori strain 26695 (Helicobacter pylori) was 50 µM and 21 µg/mL.
Consider `Cc1ncc(CO)c(CN)c1O.Cl.Cl` [pyridoxamine dihydrochloride], for which the “inhibition of bacterial growth” value in the assay with H. pylori strain N6, with H. pylori strain P12 and with H. pylori strain 26695 was “no inhibition of bacterial growth” in each case.
With `Cc1ncc(CO)c(CO)c1O` [pyridoxine], the “inhibition of bacterial growth” value with H. pylori strain N6, in the assay with H. pylori strain P12 and in the assay with H. pylori strain 26695 was “no inhibition of bacterial growth” each time.
Turning to `C=C[C@H]1C[N@@]2CC[C@H]1C[C@H]2[C@H](O)c1ccnc2ccc(OC)cc12` [quinine], the minimal inhibitory concentration (MIC) in assay [1] (setting [5]) was ≥ 400 µM and ≥ 130 µg/mL; in assay [1], ≥0.4 mM and (≥130 μg/ml); in assay [2] (setting [5]) it was ≥ 560 µM and ≥ 182 µg/mL; in assay [2], ≥0.56 mM and (≥182 μg/ml); in assay [3] (setting [5]), ≥ 400 µM and ≥ 130 µg/mL; in assay [3] it was ≥0.4 mM and (≥130 μg/ml). In addition, the MIC in assay [4] (setting [5]) was ≥ 400 µM and ≥ 130 µg/mL; in assay [4], ≥0.4 mM and (≥130 μg/ml); in the assay with H. pylori strain 26695 (Helicobacter pylori), ≥ 400 µM and ≥ 130 µg/mL. For the same compound, the inhibition at 400 µM in assay [1] (Helicobacter pylori, strain M26, quinine 0.4 mM, read-out: percentage of growth inhibition) is 87%; in assay [2] (Helicobacter pylori, strain M91, quinine 0.4 mM, read-out: percentage of growth inhibition), 78%; in assay [3] (Helicobacter pylori, strain M93, quinine 0.4 mM, read-out: percentage of growth inhibition) it was 91%; in assay [4] (Helicobacter pylori, strain M92, quinine 0.4 mM, read-out: percentage of growth inhibition), 76%; with H. pylori strain 26695 (Helicobacter pylori, quinine 0.4 mM, read-out: percentage of growth inhibition), 91%. Moreover, the inhibition at 560 µM in assay [2] (Helicobacter pylori, strain M91, quinine 0.56 mM (highest tested), read-out: percentage of growth inhibition) came out at 86%.
